Assay results reported in ChEMBL document CHEMBL1250518, “Nonsteroidal dissociated glucocorticoid agonists containing azaindoles as steroid A-ring mimetics” (J Med Chem, 2010).
Activity calls are given as the source filed them. No cut-off for these calls is given here.

Legend:
Mus musculus [1] = test: Toxicity in B10.RIII mouse assessed as increase of serum insulin level at 30 mg/kg, po qd for 5 weeks; assay type: organism-based; set-up: dose 30 mg/kg, route oral; conditions: in vivo, 840 h
[2] = molecular target: T1, Mineralocorticoid receptor (Homo sapiens, UniProt P08235); test: Binding affinity to mineralocorticoid receptor expressed in baculovirus-infected insect cells using tetramethylrhodamine labeled Dexamethasone by fluorescence polarization microplate assay
T1 sequence (P08235 whole entry): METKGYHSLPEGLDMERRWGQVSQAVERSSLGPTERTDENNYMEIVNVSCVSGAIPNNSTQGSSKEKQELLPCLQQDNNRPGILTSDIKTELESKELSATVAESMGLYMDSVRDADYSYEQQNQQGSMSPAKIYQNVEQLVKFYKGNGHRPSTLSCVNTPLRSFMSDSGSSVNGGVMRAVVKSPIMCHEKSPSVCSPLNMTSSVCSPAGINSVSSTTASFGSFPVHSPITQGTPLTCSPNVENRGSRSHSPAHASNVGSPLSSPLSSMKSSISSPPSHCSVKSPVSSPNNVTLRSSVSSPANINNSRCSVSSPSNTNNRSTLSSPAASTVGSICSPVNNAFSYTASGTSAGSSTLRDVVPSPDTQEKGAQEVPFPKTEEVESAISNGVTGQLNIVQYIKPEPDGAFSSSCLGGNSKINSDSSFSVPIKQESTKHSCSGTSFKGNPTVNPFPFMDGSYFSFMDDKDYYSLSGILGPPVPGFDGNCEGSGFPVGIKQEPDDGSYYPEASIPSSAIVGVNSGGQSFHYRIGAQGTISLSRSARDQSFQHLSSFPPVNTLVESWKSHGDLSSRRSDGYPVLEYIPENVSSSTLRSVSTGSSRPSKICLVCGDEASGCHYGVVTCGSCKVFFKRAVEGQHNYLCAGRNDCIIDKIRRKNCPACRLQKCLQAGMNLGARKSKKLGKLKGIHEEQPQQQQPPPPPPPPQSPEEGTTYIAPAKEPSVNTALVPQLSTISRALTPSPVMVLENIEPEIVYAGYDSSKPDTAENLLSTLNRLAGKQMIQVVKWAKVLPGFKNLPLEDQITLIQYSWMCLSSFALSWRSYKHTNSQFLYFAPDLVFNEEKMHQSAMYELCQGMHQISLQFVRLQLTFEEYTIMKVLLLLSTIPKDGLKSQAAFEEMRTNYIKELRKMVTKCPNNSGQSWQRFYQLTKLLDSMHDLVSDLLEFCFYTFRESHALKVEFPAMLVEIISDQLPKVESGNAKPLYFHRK

Mus musculus [3] = test: Toxicity in collagen and Freund's complete adjuvant-induced B10.RIII mouse arthritis model assessed as increase of body fat content at 30 mg/kg, po qd for 5 weeks; assay type: organism-based; set-up: dose 30 mg/kg, route oral; conditions: in vivo, 840 h
Mus musculus [4] = test: Toxicity in collagen and Freund's complete adjuvant-induced B10.RIII mouse arthritis model assessed as increase of triglyceride level at 30 mg/kg, po qd for 5 weeks; assay type: organism-based; set-up: dose 30 mg/kg, route oral; conditions: in vivo, 840 h
Mus musculus [5] = test: Toxicity in B10.RIII mouse assessed as increase of body fat content at 30 mg/kg, po qd for 5 weeks; assay type: organism-based; set-up: dose 30 mg/kg, route oral; conditions: in vivo, 840 h
Mus musculus [6] = test: Toxicity in collagen and Freund's complete adjuvant-induced B10.RIII mouse arthritis model assessed as increase of free fatty acids level at 30 mg/kg, po qd for 5 weeks; assay type: organism-based; set-up: dose 30 mg/kg, route oral; conditions: in vivo, 840 h
Mus musculus [7] = test: Toxicity in collagen and Freund's complete adjuvant-induced B10.RIII mouse arthritis model assessed as increase of serum insulin level at 30 mg/kg, po qd for 5 weeks; assay type: organism-based; set-up: dose 30 mg/kg, route oral; conditions: in vivo, 840 h
Mus musculus [8] = test: Antiinflammatory effect in collagen and Freund's complete adjuvant-induced B10.RIII mouse arthritis model assessed as inhibition of disease progression administered as po qd for 5 weeks; assay type: functional; conditions: 840 h
Mus musculus [9] = test: Antiinflammatory effect in collagen and Freund's complete adjuvant-induced B10.RIII mouse arthritis model assessed as inhibition of disease progression at 30 mg/kg, po qd for 5 weeks; assay type: functional; conditions: 840 h
Mus musculus [10] = test: Toxicity in B10.RIII mouse assessed as increase of triglyceride level at 30 mg/kg, po qd for 5 weeks; assay type: organism-based; set-up: dose 30 mg/kg, route oral; conditions: in vivo, 840 h
[11] = Clearance in Sprague-Dawley rat at 5 mg/kg, iv; assay type: ADME, organism-based; set-up: dose 5 mg/kg, route intravenous; conditions: in vivo
Glucocorticoid receptor [12] = molecular target: T2, Glucocorticoid receptor (Homo sapiens, UniProt P04150); test: Binding affinity to glucocorticoid receptor expressed in baculovirus-infected insect cells using tetramethylrhodamine labeled Dexamethasone by fluorescence polarization microplate assay
T2 sequence (P04150 whole entry): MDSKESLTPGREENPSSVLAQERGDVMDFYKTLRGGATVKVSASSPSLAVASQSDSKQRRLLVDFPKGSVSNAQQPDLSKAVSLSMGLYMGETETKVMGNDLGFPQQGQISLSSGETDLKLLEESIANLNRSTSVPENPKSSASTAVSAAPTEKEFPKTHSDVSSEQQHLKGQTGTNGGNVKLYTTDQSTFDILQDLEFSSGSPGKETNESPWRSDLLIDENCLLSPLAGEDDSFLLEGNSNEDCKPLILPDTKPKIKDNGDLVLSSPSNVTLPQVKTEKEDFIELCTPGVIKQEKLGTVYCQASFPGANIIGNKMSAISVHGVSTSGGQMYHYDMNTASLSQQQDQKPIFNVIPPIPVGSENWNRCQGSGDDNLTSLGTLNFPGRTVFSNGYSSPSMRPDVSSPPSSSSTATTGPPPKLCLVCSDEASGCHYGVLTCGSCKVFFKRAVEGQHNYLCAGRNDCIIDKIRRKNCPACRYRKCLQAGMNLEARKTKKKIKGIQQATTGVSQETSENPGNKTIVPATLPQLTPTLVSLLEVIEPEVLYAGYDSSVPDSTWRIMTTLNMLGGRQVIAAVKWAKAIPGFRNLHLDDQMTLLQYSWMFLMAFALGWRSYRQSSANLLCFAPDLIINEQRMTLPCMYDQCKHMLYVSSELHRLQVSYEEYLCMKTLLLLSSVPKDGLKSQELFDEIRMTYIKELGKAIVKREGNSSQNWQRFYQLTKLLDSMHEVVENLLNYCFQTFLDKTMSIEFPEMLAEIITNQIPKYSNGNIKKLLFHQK

Glucocorticoid receptor [13] = molecular target: T2, Glucocorticoid receptor; test: Transrepression activity at glucocorticoid receptor in HFF assessed as inhibition of IL-1-induced IL-6 production after 18 to 24 hrs by ELISA; assay type: cell-based
Progesterone receptor = molecular target: T3, Progesterone receptor (Homo sapiens, UniProt P06401); test: Binding affinity to progesterone receptor expressed in baculovirus-infected insect cells using tetramethylrhodamine labeled RU-486 by fluorescence polarization microplate assay
T3 sequence (P06401 whole entry): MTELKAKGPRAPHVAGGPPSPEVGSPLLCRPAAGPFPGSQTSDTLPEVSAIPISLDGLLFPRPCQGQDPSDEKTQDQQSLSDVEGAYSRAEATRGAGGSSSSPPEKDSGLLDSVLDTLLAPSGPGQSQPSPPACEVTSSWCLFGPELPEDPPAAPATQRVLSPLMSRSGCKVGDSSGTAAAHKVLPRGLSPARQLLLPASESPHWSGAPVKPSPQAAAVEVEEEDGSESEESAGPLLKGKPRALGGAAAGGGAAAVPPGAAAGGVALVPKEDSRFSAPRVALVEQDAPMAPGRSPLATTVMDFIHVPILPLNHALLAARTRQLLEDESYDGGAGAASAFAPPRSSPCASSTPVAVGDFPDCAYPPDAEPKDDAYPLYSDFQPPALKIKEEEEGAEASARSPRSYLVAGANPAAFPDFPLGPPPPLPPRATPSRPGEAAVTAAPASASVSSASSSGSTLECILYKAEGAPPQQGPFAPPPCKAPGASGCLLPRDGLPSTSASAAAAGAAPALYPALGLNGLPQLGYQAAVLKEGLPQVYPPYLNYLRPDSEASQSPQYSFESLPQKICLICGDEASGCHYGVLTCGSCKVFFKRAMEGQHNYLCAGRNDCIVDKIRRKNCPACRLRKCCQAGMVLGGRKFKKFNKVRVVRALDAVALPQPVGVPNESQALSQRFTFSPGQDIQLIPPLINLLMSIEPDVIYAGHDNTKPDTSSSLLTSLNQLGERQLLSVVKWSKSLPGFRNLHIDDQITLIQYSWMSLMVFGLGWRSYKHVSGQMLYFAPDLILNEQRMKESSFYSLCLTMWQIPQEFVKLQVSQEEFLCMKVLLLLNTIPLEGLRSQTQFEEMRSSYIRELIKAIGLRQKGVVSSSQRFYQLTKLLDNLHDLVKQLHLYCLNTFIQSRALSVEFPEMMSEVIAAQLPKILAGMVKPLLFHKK

[14] = Volume of distribution at steady state in Sprague-Dawley rat at 5 mg/kg, iv; assay type: ADME, organism-based; set-up: dose 5 mg/kg, route intravenous; conditions: in vivo, read-out: Vdss
[15] = Half life in Sprague-Dawley rat at 5 mg/kg, iv; assay type: ADME, organism-based; set-up: dose 5 mg/kg, route intravenous; conditions: in vivo
Glucocorticoid receptor [16] = molecular target: T2, Glucocorticoid receptor; test: Transactivation activity at glucocorticoid receptor in HFF assessed as induction of aromatase activity after 18 to 24 hrs by ELISA; assay type: cell-based
[17] = Oral bioavailability in Sprague-Dawley rat at 30 mg/kg; assay type: ADME, organism-based; conditions: Sprague-Dawley, in vivo
Glucocorticoid receptor [18] = molecular target: T2, Glucocorticoid receptor; test: Transactivation activity at glucocorticoid receptor in human HeLa cells transfected with luciferase gene linked to MMTV promoter by luciferase assay; assay type: cell-based
[19] = AUC (infinity) in Sprague-Dawley rat at 30 mg/kg, po; assay type: ADME, organism-based, Plasma; set-up: time infinity, dose 30 mg/kg, route oral; conditions: Sprague-Dawley, plasma
[20] = Cmax in Sprague-Dawley rat at 30 mg/kg, po; assay type: ADME, organism-based; set-up: dose 30 mg/kg, route oral; conditions: in vivo
[21] = Tmax in Sprague-Dawley rat at 30 mg/kg, po; assay type: ADME, organism-based; set-up: dose 30 mg/kg, route oral; conditions: in vivo
[22] = Half life in Sprague-Dawley rat at 2 mg/kg, iv; assay type: ADME, organism-based; set-up: dose 2 mg/kg, route intravenous; conditions: in vivo
Mus musculus [23] = test: Antiinflammatory activity in po dosed BALB/c mouse assessed as reduction of LPS-induced plasma TNFalpha level administered 1 hr before LPS challenge by ELISA; assay type: functional
[24] = Volume of distribution at steady state in Sprague-Dawley rat at 2 mg/kg, iv; assay type: ADME, organism-based; set-up: dose 2 mg/kg, route intravenous; conditions: in vivo, read-out: Vdss
Mus musculus [25] = test: Antiinflammatory effect in collagen and Freund's complete adjuvant-induced B10.RIII mouse arthritis model assessed as inhibition of disease progression at 100 mg/kg, po qd for 5 weeks; assay type: functional, organism-based; set-up: dose 100 mg/kg
Mus musculus [26] = test: Toxicity in B10.RIII mouse assessed as increase of serum insulin level at 100 mg/kg, po qd for 5 weeks; assay type: organism-based; set-up: dose 100 mg/kg, route oral; conditions: in vivo, 840 h
[27] = Clearance in Sprague-Dawley rat at 2 mg/kg, iv; assay type: ADME, organism-based; set-up: dose 2 mg/kg, route intravenous; conditions: in vivo
Mus musculus [28] = test: Toxicity in B10.RIII mouse assessed as increase of body fat content at 100 mg/kg, po qd for 5 weeks; assay type: organism-based; set-up: dose 100 mg/kg, route oral; conditions: in vivo, 840 h

In the case of C[C@]12C=CC(=O)C=C1CC[C@@H]1[C@@H]2[C@@H](O)C[C@@]2(C)[C@H]1CC[C@]2(O)C(=O)CO [PREDNISOLONE], the Activity (Mus musculus [1]) is reported as “Toxic”, the IC50 [2] is reported as 44 nM and the Activity (Mus musculus [3]) is reported as “Non-toxic”. The Activity (Mus musculus [4]) was “Toxic”, the Activity (Mus musculus [5]) was “Toxic” and the Activity (Mus musculus [6]) was “Non-toxic”. The Activity (Mus musculus [7]) was “Non-toxic”, the ED50 (Mus musculus [8]) was 10 mg/kg and the inhibition in vivo at 30 mg/kg (Mus musculus [9]) was 77%. The Activity (Mus musculus [10]) was “Toxic”.
With COc1ccc(F)cc1C(C)(C)C[C@@](O)(Cc1cc2ccncc2[nH]1)C(F)(F)F the clearance [11] was 61 mL/min/kg, the IC50 (Glucocorticoid receptor [12]) was 1.4 nM and the IC50 (Glucocorticoid receptor [13]) was 6 nM. The IC50 (Progesterone receptor) was 1150 nM, the IC50 [2] was 380 nM and the Vd [14] was 8.7 L/kg. It also gave a half-life [15] of 1.7 h, an EC50 (Glucocorticoid receptor [16]) of 10 nM and a bioavailability [17] of 21%. For the same compound, the IC50 (Glucocorticoid receptor [18]) was 20 nM, the AUC(0-inf) [19] was 1740 ng·h/mL and the Cmax [20] was 427 ng/mL. It also gave a Tmax [21] of 2 h.
With COc1ccc(-c2cncnc2)cc1C(C)(C)C[C@@](O)(Cc1cc2ccncc2[nH]1)C(F)(F)F the IC50 (Glucocorticoid receptor [12]) was 8 nM, the IC50 (Glucocorticoid receptor [13]) was 20 nM and the IC50 (Progesterone receptor) was > 2000 nM. The IC50 [2] was > 2000 nM, the half-life [22] was 1 h and the ED50 (Mus musculus [23]) was < 1 mg/kg. For the same compound, the Vd [24] was 6.6 L/kg, the Activity (Mus musculus [25]) was “Active” and the Activity (Mus musculus [26]) was “Non-toxic”. For the same compound, the EC50 (Glucocorticoid receptor [16]) was > 2000 nM, the clearance [27] was 83 mL/min/kg and the bioavailability [17] was 97%. For the same compound, the Activity (Mus musculus [28]) was “Non-toxic”, the ED50 (Mus musculus [8]) was 30 mg/kg and the IC50 (Glucocorticoid receptor [18]) was > 2000 nM. The AUC(0-inf) [19] was 5930 ng·h/mL and the Cmax [20] was 422 ng/mL.
